Values joined by “and” are separate entries in the source; they are usually repeats but may differ in a detail not shown here. Identical values can stand only once.

Broadly, the Papp is the rate of passage across a membrane or cell layer, normalised by area and donor concentration.

Data set [1] concerns rat small intestine (duodenum, jejunum, ileum). Briefly: In situ single-pass intestinal perfusion (SPIP), saponins administrated in monomer forms. It counts as in vivo. The note with it: for permeability classification: monomers, Papp > 0.12 × 10^−2 cm·min^−1 classified as completely absorbed (highly permeable). The protocol:
(§1) MDQ-TS perfusion samples at low, middle, and high concentration levels of 1.25, 2.5, and 5.0 mg·mL^−1 were prepared by separately dissolving MDQ-TS in the minimum amount of DMSO and diluted with K-R buffer solution. The amount of DMSO was 0.5% in the final perfusion solutions. C1, C2, C3, C4, DC1, and DC2 perfusion samples with the concentration equivalent to the amount contained in 2.5 mg·mL^−1 of MDQ-TS were individually prepared in the same way. Verapamil, amantadine and EDTA were directly dissolved in the MDQ-TS perfusate with terminal concentrations of 200 μmol·L^−1, 2.5 mmol·L^−1, and 2.5 mmol·L^−1, accordingly, and used for investigating the mechanisms involved for absorption.
(§2) In situ single-pass intestinal perfusion (SPIP) studies were performed using an experimental design adapted from the literature with some modifications. Briefly, male Sprague-Dawley rats weighing 180–220 g were acclimatized for at least one week before the experiment, and fasted for 18 h with free access to water before the perfusion experiment. Rats were anesthetized with an intraperitoneal injection of urethane (30 mg·kg^−1 body weight), and kept on a homeothermic blanket to maintain normal body temperature. The abdomen was opened with a midline longitudinal incision, and three segments of rat intestine (duodenum, jejunum, and ileum) of approximately 10 cm each were carefully cannulated on two ends with plastic tubing. Initially, the perfusion solution free of drug (37 °C) was pumped by peristaltic pump (BT100-1F, Longer Pump Co., Baoding, China) through the cannulated segments at a flow rate of 1 mL/min for approximately 30 min in order to clean out any residual debris. Secondly, the perfusion solution containing a known concentration of substance (C1, C2, C3, C4, DC1, DC2, and MDQ-TS) was perfused at 37 °C through the intestinal lumen at a constant flow rate of 0.2 mL/min. The first 20 min of period corresponds to steady state, i.e., when the substance is in equilibrium with the intestinal membrane. After steady state, samples were collected from distal portion of duodenum, jejunum and ileum at 10 min intervals (0–10, 10–20, 20–30, 30–40, 40–50, 50–60 min) in pre-weighted vials. Samples were immediately frozen at −20 °C until analysis by validated UPLC. During the experiment, care was taken to avoid disturbance of the circulatory system and the exposed segment was covered with a piece of sterilized gauze to keep it warm and moist by frequent application of warm (37 °C) saline. The intestinum tenue maintained its viability and intact state without disrupting the blood supply throughout the experimental period. Finally, animals were sacrificed after depth anesthesia by intraperitoneal injection of urethane, according to protocols for euthanasia in experimental animals. After death, the intestinal segment was removed for measurements of length and inside diameter.
(§3) The net water flux in the in situ perfusion studies (water absorption and efflux in the intestinal segment) was determined by gravimetric method. The effective absorption rate constant (Ka) and effective apparent permeability (Papp) of compounds in the intestinal segments were calculated according to the following mathematical expression:(1) Ka=(1−CoutQout/CinQin)Q/V (2) Papp=−Qln(CoutQout/CinQin)/2πrl where Cin and Cout are the concentration of test drug in the effluent perfusate through the inlet and outlet tube (μg·mL^−1), respectively. Qin and Qout represent the inlet and outlet volume of effluent perfusate (mL), respectively. Q is the volume flow rate of perfusion (mL·h^−1). V is the volume of the intestinal segment concerned (mL). 2πrl is the area of the mass transfer surface of intestinal segment concerned (cm^2).

The test system is the same in data set [2]. Description: In situ single-pass intestinal perfusion (SPIP), saponins administrated in MDQ-TS form. It counts as in vivo. The protocol:
as §1, §2, §3

Data set [3] concerns rat duodenum. Description: SPIP of MDQ-TS with or without verapamil (P-gp inhibitor). Particulars: MDQ-TS 2.5 mg/mL, verapamil 200 μmol·L^−1. In kind it is in vivo. Here is the method:
as §1, §2
as §3, with “(cm^2). […]” for “(cm^2).”

The test system of data set [4] is rat duodenum. Description: SPIP of MDQ-TS with or without EDTA (tight junction modulator). It counts as in vivo. The note with it: MDQ-TS 2.5 mg/mL, EDTA 2.5 mmol·L^−1. The protocol:
as §1, §2
as §3, with “(cm^2). […]” for “(cm^2).”

The nature of data set [5]: Apparent oil-water partition coefficient, shake-flask method. In kind it is physicochemical. The note with it: n-octanol / phosphate buffer pH 1.2-9.0, 37 °C; Kow = log Co/(Ct−Co). Here is the method: The equilibrium partitioning of C1, C2, C3, C4, DC1, and DC2 between organic lipid and water (Kow) was determined in our study by the traditional shake-flask method (SFM). Briefly, 0.5 mL of each saponin standard working solution (100 µg·mL^−1 in water-saturated n-octanol) was accurately measured into 5 mL centrifuge tubes, and spiked with 0.5 mL of different phosphate buffer solutions (pH: 1.2, 2.0, 3.6, 5.8, 6.8, 7.4, 7.8, and 9.0), respectively. After vortex-mixing for 45 min, the tubes were kept in a temperature-stable horizontal shaking bath (37 °C) for 24 h, and then centrifuged at 13,000 rpm for 10 min. Two hundred microliters of organic supernatant solution was measured, diluted with 800 µL of methanol, and mixed well. Ten microliters of the final solution was injected into the HPLC system (detailed experimental conditions and method validation results were not shown) for determination of the drug concentration in the n-octanol phase. The Kow values of the six saponins were calculated according to the following mathematical expression:(3) Kow=logCo/Ct−Co where Ct is the total concentration of the drug, and Co is the concentration of the drug in n-octanol phase.

Setting [6] is: monomer form, duodenum, concentration equivalent to 2.5 mg·mL^−1 MDQ-TS, n = 5.
Where [7] appears, read: MDQ-TS form 1.25 mg·mL^−1, duodenum, n = 5.
The mark [8] stands for this setting: MDQ-TS form 1.25 mg·mL^−1, ileum, n = 5.
[9] abbreviates: MDQ-TS form 1.25 mg·mL^−1, jejunum, n = 5.
Setting [10] is: MDQ-TS form 2.5 mg·mL^−1, duodenum, n = 5.
Where [11] appears, read: MDQ-TS form 2.5 mg·mL^−1, ileum, n = 5.
Where [12] appears, read: MDQ-TS form 2.5 mg·mL^−1, jejunum, n = 5.
The mark [13] stands for this setting: MDQ-TS form 5.0 mg·mL^−1, duodenum, n = 5.
Setting [14] is: MDQ-TS form 5.0 mg·mL^−1, ileum, n = 5.
[15] abbreviates: MDQ-TS form 5.0 mg·mL^−1, jejunum, n = 5.

Consider `C[C@@H]1CC[C@]2(C(=O)O)CC[C@]3(C)C(=CC[C@@H]4[C@@]5(C)CC[C@H](O)[C@@](C)(C(=O)O)[C@@H]5CC[C@]43C)[C@@H]2[C@]1(C)O` [C1, ilexgenin A], for which the Ka in data set [1] (setting [6]) is listed as 1.77 ± 0.17 ×10^−2 min^−1; in data set [1] (monomer form, ileum, n = 5), 1.50 ± 0.25 ×10^−2 min^−1; in data set [1] (monomer form, jejunum, n = 5) it was 1.65 ± 0.19 ×10^−2 min^−1; in data set [2] (setting [7]) it was 1.86 ± 0.73 ×10^−2 min^−1; in data set [2] (setting [8]), 0.89 ± 0.08 ×10^−2 min^−1; in data set [2] (setting [9]), 0.95 ± 0.28 ×10^−2 min^−1. In addition, the Ka in data set [2] (setting [10]) is recorded as 1.70 ± 0.31 ×10^−2 min^−1; in data set [2] (setting [11]), 2.90 ± 0.37 ×10^−2 min^−1; in data set [2] (setting [12]), 2.23 ± 0.39 ×10^−2 min^−1; in data set [2] (setting [13]), 1.68 ± 0.74 ×10^−2 min^−1; in data set [2] (setting [14]), 1.48 ± 0.76 ×10^−2 min^−1; in data set [2] (setting [15]), 2.30 ± 1.24 ×10^−2 min^−1. For the same molecule, the permeability classification result in data set [1] is “highly permeable”. In the data set with rat duodenum [3], the “Ka increase in comparison with non-Verapamil added group” value is reported as “about 1.5 fold”. In addition, the “Ka increase in comparison with non-EDTA added group” value in the data set with rat duodenum [4] is listed as approximately 1.6 fold. For the same molecule, the “Papp increase in comparison with non-EDTA added group” value with rat duodenum [4] is on record as “about 1.7 fold”. Moreover, the “apparent oil-water partition coefficient (Kow)” value in data set [5] was −1 to 2.

Consider `CC1CCC2(C(=O)OC3OC(CO)C(O)C(O)C3O)CCC3(C)C(=CCC4C5(C)CCC(O)C(C)(C(=O)O)C5CCC43C)C2C1(C)O` (stereo not drawn) [C2, ilexsaponin A1], for which the Ka in data set [1] (setting [6]) was 1.40 ± 0.29 ×10^−2 min^−1; in data set [1] (monomer form, ileum, n = 5), 1.62 ± 0.32 ×10^−2 min^−1; in data set [1] (monomer form, jejunum, n = 5), 1.72 ± 0.16 ×10^−2 min^−1; in data set [2] (setting [7]), 1.10 ± 0.40 ×10^−2 min^−1; in data set [2] (setting [8]), 1.61 ± 0.37 ×10^−2 min^−1; in data set [2] (setting [9]), 0.74 ± 0.25 ×10^−2 min^−1. Also, the Ka in data set [2] (setting [10]) is reported as 0.85 ± 0.20 ×10^−2 min^−1; in data set [2] (setting [11]), 1.89 ± 0.35 ×10^−2 min^−1; in data set [2] (setting [12]), 0.68 ± 0.18 ×10^−2 min^−1; in data set [2] (setting [13]), 1.13 ± 0.62 ×10^−2 min^−1; in data set [2] (setting [14]) it was 0.85 ± 0.27 ×10^−2 min^−1; in data set [2] (setting [15]), 1.21 ± 0.51 ×10^−2 min^−1. For the same molecule, the Papp in data set [1] (monomer form, ileum, n = 5) was 0.25 ± 0.03 ×10^−2 cm·min^−1; in data set [1] (monomer form, jejunum, n = 5), 0.25 ± 0.01 ×10^−2 cm·min^−1. In data set [1], the permeability classification result is recorded as “highly permeable”. For the same molecule, in the data set with rat duodenum [3], the “Ka increase in comparison with non-Verapamil added group” value is listed as approximately 4.2 fold. Besides, the “Papp increase in comparison with non-Verapamil added group” value in the data set on rat duodenum [3] is “about 2.3 fold”. In addition, in the data set on rat duodenum [4], the “Ka increase in comparison with non-EDTA added group” value is approximately 1.6 fold. Further, the “Papp increase in comparison with non-EDTA added group” value in the data set on rat duodenum [4] is approximately 1.2 fold. The “apparent oil-water partition coefficient (Kow)” value in data set [5] is given as −1 to 2.

For `C[C@H]1CC[C@]2(C(=O)O)CC[C@]3(C)C(=CC[C@@H]4[C@@]5(C)CC[C@H](O[C@@H]6OC[C@@H](O)[C@H](O)[C@H]6O[C@@H]6O[C@H](CO)[C@@H](O)[C@H](O)[C@H]6O)C(C)(C)[C@@H]5CC[C@]43C)[C@@H]2[C@]1(C)O` [C3, ilexsaponin B1], the Papp is more than 0.0012 cm/min in data set [1] (administered in monomer forms, summary bound); 0.23 ×10^−2 cm·min^−1 and 0.23 ± 0.02 ×10^−2 cm·min^−1 in data set [1] (setting [6]); 0.21 ± 0.06 ×10^−2 cm·min^−1 in data set [1] (monomer form, ileum, n = 5); 0.23 ×10^−2 cm·min^−1 and 0.23 ± 0.05 ×10^−2 cm·min^−1 in data set [1] (monomer form, jejunum, n = 5); 0.24 ± 0.10 ×10^−2 cm·min^−1 in data set [2] (setting [7]); 0.18 ± 0.01 ×10^−2 cm·min^−1 in data set [2] (setting [8]). The apparent permeability (Papp) in data set [2] (setting [9]) is 0.17 ± 0.04 ×10^−2 cm·min^−1; in data set [2] (setting [10]), 0.36 ± 0.06 ×10^−2 cm·min^−1; in data set [2] (setting [11]), 0.42 ± 0.03 ×10^−2 cm·min^−1; in data set [2] (setting [12]), 0.40 ± 0.13 ×10^−2 cm·min^−1; in data set [2] (setting [13]) it was 0.39 ± 0.24 ×10^−2 cm·min^−1; in data set [2] (setting [14]), 0.29 ± 0.15 ×10^−2 cm·min^−1. In addition, the apparent permeability coefficient (Papp) in data set [2] (setting [15]) was 0.40 ± 0.24 ×10^−2 cm·min^−1; in data set [2] (administrated in MDQ-TS form, summary bound (except DC2 in 1.25 mg·mL^−1 MDQ-TS group)), more than 0.0012 cm/min. In addition, the Ka in data set [1] (setting [6]) is given as 1.49 ± 0.36 ×10^−2 min^−1; in data set [1] (monomer form, ileum, n = 5), 1.38 ± 0.06 ×10^−2 min^−1; in data set [1] (monomer form, jejunum, n = 5), 1.56 ± 0.30 ×10^−2 min^−1; in data set [2] (setting [7]), 1.16 ± 0.26 ×10^−2 min^−1; in data set [2] (setting [8]), 1.04 ± 0.11 ×10^−2 min^−1; in data set [2] (setting [9]) it was 0.94 ± 0.12 ×10^−2 min^−1. Moreover, the Ka in data set [2] (setting [10]) is given as 2.19 ± 0.52 ×10^−2 min^−1; in data set [2] (setting [11]) it was 3.77 ± 0.41 ×10^−2 min^−1; in data set [2] (setting [12]) it was 3.82 ± 0.49 ×10^−2 min^−1; in data set [2] (setting [13]), 1.80 ± 0.97 ×10^−2 min^−1; in data set [2] (setting [14]), 1.66 ± 0.95 ×10^−2 min^−1; in data set [2] (setting [15]), 2.48 ± 0.86 ×10^−2 min^−1. For the same molecule, the permeability classification result in data set [1] is reported as “highly permeable”. Also, the “Ka increase in comparison with non-Verapamil added group” value in the data set with rat duodenum [3] is approximately 1.2 fold. The “Papp increase in comparison with non-Verapamil added group” value in the data set with rat duodenum [3] is approximately 1.4 fold. In addition, in the data set with rat duodenum [4], the “Ka increase in comparison with non-EDTA added group” value is listed as approximately 1.5 fold. In the data set on rat duodenum [4], the “Papp increase in comparison with non-EDTA added group” value was approximately 1.9 fold. The “apparent oil-water partition coefficient (Kow)” value in data set [5] was −1 to 2.

These data come from paper PMC6150237, “Study of Absorption Characteristics of the Total Saponins from Radix Ilicis Pubescentis in an In Situ Single-Pass Intestinal Perfusion (SPIP) Rat Model by Using Ultra Performance Liquid Chromatography (UPLC)” (Molecules : A Journal of Synthetic Chemistry and Natural …, 2017).
